The results in this text go back to patent US20150352114A1, “MITOTIC KINESIN Eg5 INHIBITING ANTICANCER AGENTS” (THE CLEVELAND CLINIC FOUNDATION, priority 2014, published 2015).

For one assay, the system named is matched GSCs and NSTCs. Kind of assay: Long-term viability assay, CellTiter-Glo, 5 days. The format is cell-based, human. The following applies: 3 nM; two matched GSCs and NSTCs. The procedure:
The half maximal effective concentration of ispinesib for acutely dissociated and MACS sorted matched GSCs and NSTCs was determined by plating, in triplicate, 1,000 cells per well of a 96 well plate pre-coated with GelTrex in growth-factor free Neuralbasal media. The next day, cells were exposed to 2-fold increasing concentrations of ispinesib spanning from 0 to 32 nM. Viability was measured at 72 hours using CellTiter-Glo ATP-based assay (Promega, Madison, Wis.) read on a luminometer (Perkin-Elmer, Waltham, Mass.). For long-term viability assays, 500 cells per well were plated in triplicate into 96-well plates as above. The next day, cells were exposed to 3 nM ispinesib or vehicle (DMSO) and viability was measured daily for 5 days using CellTiter-Glo. Day 0 reading were taken immediately after addition of drug or vehicle. SubG1 for GSCs and NSTCs was determined by flow cytometry for propidium iodide and gated as the events below the 2N G1 peak of the resulting histogram. Analysis was done following treatment of 100,000 cells with vehicle or 3 nM ispinesib. Cells were fixed at Day 0 through Day 4 in 100% cold ethanol and simultaneously processed for flow analysis with 20,000 events analyzed per condition.
A general note: ATP-based viability assays read luminescence as a measure of living cells.

A further assay relates to GSCs from xenograft 3691. The assay is described as follows: Intracranial implantation of pre-exposed GSCs (tumor initiation). The assay is classed as in vivo, mice. The procedure: All animal studies described were approved by the Cleveland Clinic Foundation Institutional Animal Care and Use Committee and conducted in accordance with the NIH Guide for the Care and Use of Laboratory Animals. For subcutaneous tumor studies, 1×10^5 freshly dissociated GBM cells from a xenograft originally derived from a primary GBM patient specimen (3691) were injected into the flanks of 10 six week old female athymic nu/nu mice. Tumors were allowed to reach approximately 0.12 cm^3, at which point animals were randomized into either vehicle control (DMSO) group or ispinesib (10 mg/kg given daily for 7 consecutive days by intraperitoneal injection) (Selleck Chemicals, Houston, Tex.). Tumors were monitored and measured daily using perpendicular diameter measurements for 7 days. Tumor volume was calculated using the ellipsoid formula π/6×larger diameter×(smaller diameter)^2. After the last treatment on Day 7, tumors were removed and weighed then processed for immunofluorescence (as described below). For intracranial implantation studies to evaluate tumor initiation by GSCs, the cells were isolated as described below and pre-exposed to drug or vehicle either in vitro or in vivo. […] Mice were monitored daily for neurological impairment at which time they were sacrificed and brains removed to evaluate for tumor development.

Assay [1] relates to orthotopic tumor from luciferase-expressing 3691 GSCs. Kind of assay: Orthotopic GBM xenograft model with systemic ispinesib. The assay is classed as in vivo, mice.
Method: The tumor was isolated 5 hours later and processed for immunofluorescence to βtubulin with the nuclei counterstained with DAPI. […] 7 days later when positive luminescence signal indicated tumor burden, mice were randomized into one of two treatment groups; vehicle only (DMSO; n=10) or 10 mg/kg ispinesib (n=10) administered on a q4d×6 dosing schedule. Arrows indicate day of vehicle or drug administration.
Subcutaneous or intracranial tumors were fixed overnight in 4% PFA at 4° C., washed in PBS, cryoprotected in 30% sucrose, then embedded in optimal cutting temperature compound (OCT) and stored at −80° C. […] Sections were cut using a LeicaCMXXXX cryostat at 10 μm directly onto slides (Leica Microsystems Inc., Buffalo Grove, Ill.). Sections were postfixed for 15 minutes at room temperature in 4% PFA followed by PBS washes then incubated in blocking solution (5% goat serum, 0.1% Triton X-100 in PBS). Primary antibodies were diluted in blocking solution and used as follows overnight at 4° C.: Sox2 (rabbit, 1:500, Abcam, Cambridge, Mass., USA), atubulin (rat, 1:1000, AbD Serotec, Raleigh, N.C.). Secondary antibodies were Alexa Fluor (1:500, Invitrogen, Grand Island, N.Y., USA) labeled with 488 mixed in blocking solution and incubated for 2 hours at room temperature. DNA was stained using 4′,6-diamidino-2-phenylindole (DAPI, 10 μg/ml, Sigma, St Louis, Mo., USA) diluted in PBS for 5 minutes at room temperature.
To evaluate the efficacy of Eg5 inhibition in a more clinically relevant system, we utilized an orthotopic xenograft model to systemically deliver ispinesib. […] The tumor was sectioned and probed for tubulin to evaluate for the presence of mono-astral spindles, a hallmark of Eg5 inhibition.
Another assay has as its system GFP-positive tumor cells. The assay is described as follows: Brain slice culture time-lapse cell migration, PDGF-IRES-GFP retrovirus glioma model. The note with it: 200 nM. The assay is classed as cell-based, rat. Here is the method: The PDGF-IRES-GFP retrovirus was produced according to well known methods previously described. P3 neonatal Sprague-Dawley rats were anesthetized using hypothermia. Briefly, each pup was carefully wrapped in several layers of gauze and then covered with ice. After 12 minutes, the rat pup's head was placed in a DKI 963 Stereotaxic Alignment Instrument (David Kopf Instruments, Tujunga, Calif.). The bregma was identified and using a sterile 18 gauge needle a small hole was poked into the skull that was 1 mm rostral and 2 mm to the right of the bregma. A 27-gauge Hamilton microsyringe (Reno, Nev.) was then inserted to a depth of 1.5 mm, and 2 ul of virus was injected at a rate of 0.2 ul/min.
At days P8, P9, and P10, PDGF-IRES-GFP injected rat pups were anesthetized with Ketamine/Xylazine cocktail and decapitated. Brains were isolated and 300-um coronal sections were taken in the vicinity of the injection site using a McIlwain tissue chopper. The slices were transferred onto a porous 0.4-um culture plate insert (Millipore, Billerica, Mass.) and then placed into Glass Bottom 6 well plates (P06G-0-20-F, MatTek Corp, Ashland, Mass.) containing slice culture media (MEM, 2 mM L-glutamine, […], 10% Glucose, Its (Sigma, 12521) and Anti-Anti (Gibco, 15240-062)). Microglial and perivascular cells of the brain sections were stained with Isolectin GS-IB4, Alexa fluor 594 conjugate (Invitrogen) for 30 minutes at 37° C., washed three times with PBS and returned to a humidified atmosphere at 5% (CO2). Images of the brain slices for time-lapse microscopy were acquired with a Perkin Elmer UltraView Spinning Disk microscope on a Leica DMI 6000 with a 10× Plan Apo 0.4 NA objective lens. During imaging, the brain slices were placed in a stage mounted 37° C. incubator where 60% humidity and 5% CO2 was maintained. The emission range for 488 and 561 is […] and 580-650, respectively and acquisition and analysis were performed using Velocity software. The migratory path of the individual cells was then tracked every 7 minutes by marking the position of the cell body at consecutive time points.
Fluorescence, time-lapse image stacks consisting of ˜150 frames (7 minute intervals) were imported into Image-Pro Plus (v7.0, Media Cybernetics, Silver Spring, Md.). Gliomal cell tracking for each treatment group (55 cells/group) was performed in a semi-automated fashion using a combination of Fourier correlation and user-guided input. Cells selected for tracking were chosen randomly from the periphery of the tumor mass in each image stack. X and Y coordinates from each cell track were exported to Excel and translated such that each cell's track originated from a common origin (0,0). […] Mean-squared displacement for tracked cells in each group was analyzed using a persistent random-walk model (1,2). Speed (um/s) and persistence (min) were extracted using a non-linear least-squared regression to the model equation for each track and averaged for each treatment group.

The mark [2] stands for this setting: Persistent Random Walk model fit.

Turning to `Cc1ccc(C(=O)N(CCCN)[C@@H](c2nc3cc(Cl)ccc3c(=O)n2Cc2ccccc2)C(C)C)cc1` [ispinesib, N-(3-amino-propyl)-n-[R-1-(3-benzyl-7-choloro-4-oxo-3,4-dihydroquinazolin-2-yl)-2-methyl-propyl]-4-methyl-benzamide methanesulfonate], the “cell viability over five-day time course” value in the assay with matched GSCs and NSTCs is “Both populations demonstrated sensitivity”. Moreover, the tumor initiation entry in the assay with GSCs from xenograft 3691 (GSCs from subcutaneous tumors treated in vivo 3 days with 10 mg/kg, 1,000 or 10,000 cells per mouse) is reported as “reduced their tumor initiation phenotype”. The secondary tumor initiation result in the assay on GSCs from xenograft 3691 (GSCs pretreated in vitro 18 hours with 3 nM, 2,500 or 25,000 cells per mouse) is reported as “significant impairment of secondary tumor initiation”. Besides, in assay [1] (10 mg/kg q4d×6 intraperitoneal), the median survival was 36 days. The survival versus vehicle entry in assay [1] (10 mg/kg q4d×6 intraperitoneal, p<0.001) is recorded as “significant survival advantage”. Besides, the “mono-astral spindles in intracranial tumor” value in assay [1] (single 10 mg/kg dose, tumor harvested 5 hours later) is reported as “numerous cells with mono-astral spindles”. Moreover, the “tumor dispersion (Wind Rose plots, MSD)” value in the assay on GFP-positive tumor cells is on record as “clear reduction in tumor dispersion”. Besides, in the assay on GFP-positive tumor cells (versus control), the “reduction in mean squared displacement” value is on record as “approximately four-fold” and the “reduction of cell velocity” value is given as “approximately two-fold”. For the same compound, in the assay with GFP-positive tumor cells (setting [2]), the cell velocity is reported as 11.3±0.2 μm/hr and the persistence time was determined as 2.3 ± 0.1 h.
